Literature values, collected in patent US20210251923A1, “METHODS FOR IMPROVING NEUROLOGICAL DISEASES AND DISORDERS” (CuraSen Therapeutics, Inc., priority 2018, published 2021).

Tested on: Ts65Dn mice
Conditions: increasing brain NE levels

N[C@H](C(=O)O)[C@H](O)c1ccc(O)c(O)c1 [L-DOPS, L-threo-3,4-dihydroxyphenylserine]
contextual learning: restored contextual learning
